This is an account of results in the Deep4Chem optical property database.

A short description of this data set: photoluminescence quantum yield (fraction); solvent given as SMILES.

`CCCCC(CC)CN1C(=O)c2cc(Oc3ccc(C(C)(C)C)cc3)c3c4c(Oc5ccc(OC)cc5)cc5c6c(cc(Oc7ccc(OC)cc7)c(c7c(Oc8ccc(C(C)(C)C)cc8)cc(c2c37)C1=O)c64)C(=O)N(c1c(C(C)C)cccc1C(C)C)C5=O` (centres undefined): the photoluminescence quantum yield (in Cc1ccccc1) is 0.57.
As for `COc1ccc2c(c1)C(=O)c1cc(OC)cc(OC)c1-2`, the photoluminescence quantum yield runs as follows: (in C1CCCCC1) 0.0024; (in CC#N) 0.0001; (in CCO) 0.
`O=Cc1c(O)c(-c2nc3ccccc3s2)cc2ccccc12`: the photoluminescence quantum yield reads like this: (in C1CCOC1) 0.066; (in CC#N) 0.052; (in CC(C)=O) 0.053; (in CCO) 0.07; (in CCOC(C)=O) 0.068; (in CN(C)C=O) 0.077. The photoluminescence quantum yield reads like this: (in CO) 0.061; (in Cc1ccccc1) 0.068; (in ClC(Cl)Cl) 0.065; (in ClCCl) 0.109.
Where the note is “in Cc1ccccc1”, `CCCC1=Cc2nc1ccc1[nH]c(cc1CCC)c1nc(ccc3[nH]c2cc3CCC)C(CCC)=C1` displayed a photoluminescence quantum yield of 0.38.
For the setting “in ClCCl”, `Cc1ccc(-c2c3nc(c(-c4ccc(C)cc4)c4ccc([nH]4)c(-c4ccc(OC(=O)C(C)c5cccc(C(=O)c6ccccc6)c5)cc4)c4nc(c(-c5ccc(C)cc5)c5ccc2[nH]5)C=C4)C=C3)cc1` (centres undefined) had a photoluminescence quantum yield of 0.12.
In the case of `CCOC(=O)COc1ccc(/C=C/C2=C3c4ccccc4C(c4ccc[nH]4)=[N+]3[B-](F)(F)n3ccc(C)c32)cc1`, the photoluminescence quantum yield runs as follows: (in C1CCOC1) 0.003; (in CC#N) 0.003; (in CCCCCC) 0.009; (in CO) 0.005; (in Cc1ccccc1) 0.004; (in ClCCl) 0.003.
Take `CC1=C(c2ccccc2)Oc2cc3nc4ccccc4nc3c3cccc1c23`: under “in ClCCl”, the photoluminescence quantum yield was 0.45.
As for `COC(=O)C(N)Cc1ccc(O[Si]2(Oc3ccc(CC(N)C(=O)OC)cc3)n3c4c5ccccc5c3/N=C3N=C(/N=c5/c6ccccc6/c(n52)=N/C2=NC(=N\4)/c4ccccc42)c2ccccc2\3)cc1` (centres undefined), the photoluminescence quantum yield (in CN(C)C=O) is 0.12.
As to `Nc1cccc2c1-c1ccccc1C2=O`, the photoluminescence quantum yield was 0.035 (in C1CCCCC1), 0.012 (in CC#N), 0.00024 (in CCO) and 0.074 (in c1ccccc1).
In turn, `N#Cc1ccc(-n2c3ccccc3c3c2c2ccccc2n3-c2ccccc2)cc1` came in with a photoluminescence quantum yield (in Cc1ccccc1) of 0.143.
Where the note is “in ClC(Cl)Cl”, `CCCCCCCCCCOc1ccc2cc(C3=C4C(=O)N(CC(OCC)OCC)C(c5cc6ccc(OCCCCCCCCCC)cc6o5)=C4C(=O)N3CC(OCC)OCC)oc2c1` displayed a photoluminescence quantum yield of 0.75.
The molecule `Oc1ccc2ccccc2c1/C=N/c1cc2ccccc2cc1/N=C/c1c(O)ccc2ccccc12` had a photoluminescence quantum yield (in CC#N) of 0.042.
As for `O=C1[C@@H]2[C@H](C(=O)N1c1cccc3cc4ccccc4cc13)[C@H]1C[C@@H]2c2c1c(-c1ccccc1)c1ccccc1c2-c1ccccc1`, under “in ClC(Cl)Cl”, the photoluminescence quantum yield was found to be 0.28.
`CCCCCOc1cc2oc(=O)c3c4ccc(N)cc4c4ccc5cccc6c(c1)c2c3c4c56` returned a photoluminescence quantum yield (in C1CCOC1) of 0.486.
Take `CN(C)c1ccc(/C=C/C=C/c2nc3ccccc3s2)cc1`: the photoluminescence quantum yield was 0.0068 (in CC#N); 0.022 (in CCCCCC); 0.0044 (in CCCCO); 0.0054 (in CCCO); 0.0045 (in CCO); 0.0064 (in CN(C)C=O). The photoluminescence quantum yield reads like this: (in CO) 0.0039; (in Cc1ccccc1) 0.0088; (in ClCCl) 0.0054; (in OCC(O)CO) 0.039; (in OCCO) 0.0062.
For the molecule `CN(C)c1ccc(-c2nc(-c3ccc(-n4c5ccccc5c5ccccc54)cc3)cc(-c3ccc(-n4c5ccccc5c5ccccc54)cc3)n2)cc1`, the photoluminescence quantum yield (in C1CCOC1) was found to be 0.035, the photoluminescence quantum yield (in CN(C)C=O) was determined as 0.011, the photoluminescence quantum yield (in Cc1ccccc1) was 0.07 and the photoluminescence quantum yield (in ClC(Cl)Cl) was found to be 0.07.
Turning to `CC1=CC(C)=[N+]2C1=C(c1ccc(N(C)C)cc1)c1c(C)cc(/C=C/c3ccc(N(C)C)cc3)n1[B-]2(F)F`, the photoluminescence quantum yield (in CCOCC) is 0.78.
Turning to `F[B-]1(F)n2c(c3cc4ccccc4cc3c2-c2ccccc2)C=C2c3cc4ccccc4cc3C(c3ccccc3)=[N+]21`, the photoluminescence quantum yield is 0.16 (in C1CCOC1), 0.14 (in CN(C)C=O), 0.16 (in ClCCl) and 0.21 (in c1ccccc1).
`Cc1cn2cc(-c3ccc(-c4ccccc4)cc3)[n-][n+]2c1` yielded a photoluminescence quantum yield (in ClCCl) of 0.27.
For the molecule `CCOC(=O)c1c2c3c(cccc3c3cc4ccccc4cc13)N(C)C2=O`, the photoluminescence quantum yield (in CC#N) is 0.37.
Regarding `CCN(CC)c1ccc(-c2ccc(-c3nc(N4CCOCC4)c4ccccc4n3)s2)cc1`, the photoluminescence quantum yield by setting is: (in CC#N) 0.23; (in Cc1ccccc1) 0.67.
Turning to `CCCCCCCN1C(=CC2=C([O-])C(=Cc3sc4ccccc4[n+]3CCCCCCC)C2=C(C#N)C#N)Sc2ccccc21`, the photoluminescence quantum yield by setting is: (in C1COCCO1) 0.09; (in CCO) 0.14; (in CN(C)C=O) 0.14; (in ClC(Cl)Cl) 0.13.
Turning to `CC(C)(C)C1=CC2=C3C(=CC=C4C=CC(c5cc6c7cc(-c8ccc9ccc%10cc(C(C)(C)C)cc%11ccc8c9c%10%11)ccc7c(-c7ccc8ccc9cc(C(C)(C)C)cc%10ccc7c8c9%10)cc6c6cc(-c7ccc8ccc9cc(C(C)(C)C)cc%10ccc7c8c9%10)ccc56)=C(C=C2)C43)C1` (centres undefined), the photoluminescence quantum yield (in ClCCl) was 0.874.
The molecule `N#C/C(=C\c1ccc(C(F)(F)F)cc1)c1nc(-c2ccc(Cl)cc2)cs1` showed a photoluminescence quantum yield (in CC#N) of 0.057.
For `c1ccc(-c2ccccc2)cc1`, the photoluminescence quantum yield is 0.25 (in C1CCCCC1) and 0.18 (in C1COCCO1).
`c1cc2cc(c1)c1cccc(c1)c1cccc(c1)c1cccc(c1)c1cccc(c1)c1cccc2c1` showed a photoluminescence quantum yield (in ClC(Cl)Cl) of 0.06.
Where the note is “in CCO”, `CC(C)(C)OC(=O)NCCCC(=O)OCc1ccc2c3cccc4cccc(c5cccc1c52)c43` registered a photoluminescence quantum yield of 0.87.
Take `F[B-]1(F)n2cccc2C=C2c3ccccc3C(c3ccc[nH]3)=[N+]21`: the photoluminescence quantum yield reads like this: (in C1CCOC1) 0.82; (in CC#N) 0.8; (in CCCCCC) 0.83; (in CO) 0.76; (in Cc1ccccc1) 0.81; (in ClCCl) 0.8.
For the setting “in ClCCl”, `Cc1nc(-c2cc(C(F)(F)F)ccc2O)n2c1CCCC2` came in with a photoluminescence quantum yield of 0.61.
Consider `N#Cc1cc(C#N)cc(-n2c3ccccc3c3cc(-c4ccc5c(c4)c4ccccc4n5-c4cc(C#N)cc(C#N)c4)ccc32)c1`, for which the photoluminescence quantum yield reads like this: (in Cc1ccccc1) 0.5; (in O=P(c1ccccc1)(c1ccccc1)c1ccccc1Oc1ccccc1P(=O)(c1ccccc1)c1ccccc1) 0.58.
On to `CC(C)(C)c1ccc(-c2cc(-c3ccc(-c4cc(-c5ccc(C(C)(C)C)cc5)c(C(=O)NCc5ccccc5)s4)s3)sc2C(=O)NCc2ccccc2)cc1`, for which the photoluminescence quantum yield (in ClCCl) amounted to 0.33.
On to `CC(C)[Si](C#Cc1c2ccc(C(C)(C)C)cc2c(C#C[Si](C(C)C)(C(C)C)C(C)C)c2ccc(C(C)(C)C)cc12)(C(C)C)C(C)C`, for which, where the note is “in Cc1ccccc1”, the photoluminescence quantum yield stood at 0.92.
`CCCCCCN1C(=O)c2cccc3c(-c4ccc(-c5cc(-c6ccccc6)n(-c6ccccc6)n5)s4)ccc(c23)C1=O` showed a photoluminescence quantum yield (in ClCCl) of 0.35.
